{
  "source": "BindingDB's records for patent US12391702",
  "about": "(Bristol-Myers Squibb, 2025)",
  "molecular_target": "T1, Interleukin-1 receptor-associated kinase 4 (Homo sapiens, UniProt Q9NWZ3)",
  "T1 sequence (Q9NWZ3 whole entry)": "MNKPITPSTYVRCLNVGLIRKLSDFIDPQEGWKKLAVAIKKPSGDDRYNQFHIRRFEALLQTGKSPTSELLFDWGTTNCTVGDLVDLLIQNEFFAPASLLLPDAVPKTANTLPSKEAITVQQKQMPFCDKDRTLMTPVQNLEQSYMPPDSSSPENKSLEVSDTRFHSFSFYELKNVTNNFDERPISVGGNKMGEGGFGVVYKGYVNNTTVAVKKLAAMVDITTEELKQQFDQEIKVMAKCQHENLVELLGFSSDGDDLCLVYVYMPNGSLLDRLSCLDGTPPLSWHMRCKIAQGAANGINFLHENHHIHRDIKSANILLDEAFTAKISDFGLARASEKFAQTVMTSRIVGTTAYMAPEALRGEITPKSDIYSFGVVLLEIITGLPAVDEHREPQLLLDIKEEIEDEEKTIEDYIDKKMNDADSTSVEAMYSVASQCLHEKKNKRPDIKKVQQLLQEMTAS",
  "assay": "IRAK4 Inhibition Assay",
  "description": "The assays were performed in U-bottom 384-well plates. The final assay volume was 30 μL prepared from 15 μL additions of enzyme and substrates (fluoresceinated peptide and ATP) and test compounds in assay buffer (20 mM HEPES pH 7.2, 10 mM MgCl2, 0.015% Brij 35 and 4 mM DTT). The reaction was initiated by the combination of IRAK4 with substrates and test compounds. The reaction mixture was incubated at room temperature for 60 min. and terminated by adding 45 μL of 35 mM EDTA to each sample. The reaction mixture was analyzed on the Caliper LABCHIP 3000 (Caliper, Hopkinton, MA) by electrophoretic separation of the fluorescent substrate and phosphorylated product. Inhibition data were calculated by comparison to no enzyme control reactions for 100% inhibition and vehicle-only reactions for 0% inhibition. The final concentrations of reagents in the assays are ATP, 500 μM; FL-IPTSPITTTYFFFKKK peptide 1.5 μM; IRAK4, 0.6 nM; and DMSO, 1.6%.",
  "data": [
    {"smiles": "CC(C)Nc1c(C(=O)NC[C@@H](F)C(C)(C)O)cnc2c1Oc1cc(C#N)ccc1O2", "note": "[US12391702, Example 1]", "values": [
      {"measurement": "IC50", "value": 1180, "unit": "nM"}
    ]}
  ]
}
